The record followed here is ChEMBL document CHEMBL5233210, “Pyrazolone structural motif in medicinal chemistry: Retrospect and prospect” (Eur J Med Chem, 2020).

As a reminder, the IC50 is the point on the concentration scale where inhibition reaches its midpoint. As a reminder, the Ki is a dissociation constant, usually derived from enzyme kinetics or from competition with a known ligand. A word on the inhibition: it is how much of the control response was suppressed. A word on the MIC: it is the lowest concentration found to suppress growth.

In brackets after ≈: the same amount, converted by molar mass.

Data set [1] has as its system Mycobacterium tuberculosis. The data set can be described thus: Antibacterial activity against Mycobacterium tuberculosis. The data set is classed as functional, organism-based.
Data set [2] in a line: Selectivity index, ratio of CC50 african green monkey Vero cells to IC50 for Mycobacterium tuberculosis. The conditions noted are these: read-out: Ratio CC50/IC50. The data set is classed as toxicity.
Data set [3] has as its target Amine oxidase [flavin-containing] B (Rattus norvegicus, UniProt P19643). The data set can be described thus: Inhibition of rat brain synaptosome MAO-B. The data set is classed as subcellular.
Another data set is filed under the species Homo sapiens. The data set can be described thus: Selectivity index, ratio of Ki for human MAO-B to Ki for human MAO-A.
For data set [4], the target named is T1, Amine oxidase [flavin-containing] A (Homo sapiens, UniProt P21397).
T1 sequence (P21397 whole entry): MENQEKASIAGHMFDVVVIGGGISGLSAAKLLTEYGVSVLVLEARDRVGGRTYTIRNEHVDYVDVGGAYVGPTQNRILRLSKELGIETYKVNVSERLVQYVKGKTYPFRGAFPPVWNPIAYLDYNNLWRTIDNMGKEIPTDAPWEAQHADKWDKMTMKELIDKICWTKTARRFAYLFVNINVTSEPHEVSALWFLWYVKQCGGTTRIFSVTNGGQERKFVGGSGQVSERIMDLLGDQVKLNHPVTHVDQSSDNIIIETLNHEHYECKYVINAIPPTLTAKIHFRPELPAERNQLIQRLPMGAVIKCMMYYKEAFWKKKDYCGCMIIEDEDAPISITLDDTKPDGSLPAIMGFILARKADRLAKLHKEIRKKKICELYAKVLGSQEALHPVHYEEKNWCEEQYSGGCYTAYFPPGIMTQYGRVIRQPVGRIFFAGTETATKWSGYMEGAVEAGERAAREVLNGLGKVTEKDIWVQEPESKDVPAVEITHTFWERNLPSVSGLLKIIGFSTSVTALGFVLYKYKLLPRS
The data set can be described thus: Inhibition of human MAO-A.

The target in data set [5] is T2, Amine oxidase [flavin-containing] B (Homo sapiens, UniProt P27338).
T2 sequence (P27338 whole entry): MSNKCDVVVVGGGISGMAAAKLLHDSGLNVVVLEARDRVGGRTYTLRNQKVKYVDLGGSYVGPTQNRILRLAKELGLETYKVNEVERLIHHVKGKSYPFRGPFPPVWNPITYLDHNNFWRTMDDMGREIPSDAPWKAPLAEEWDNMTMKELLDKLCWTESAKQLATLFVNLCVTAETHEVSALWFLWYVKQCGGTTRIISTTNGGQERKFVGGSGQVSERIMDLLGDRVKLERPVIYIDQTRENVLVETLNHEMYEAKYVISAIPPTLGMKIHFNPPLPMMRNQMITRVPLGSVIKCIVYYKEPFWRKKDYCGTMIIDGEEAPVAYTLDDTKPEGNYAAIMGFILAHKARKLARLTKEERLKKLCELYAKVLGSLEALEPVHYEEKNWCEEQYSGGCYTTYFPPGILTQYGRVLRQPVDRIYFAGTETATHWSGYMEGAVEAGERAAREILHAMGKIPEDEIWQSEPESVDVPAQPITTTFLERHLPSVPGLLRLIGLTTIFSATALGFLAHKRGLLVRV
The experiment in a line: Inhibition of human MAO-B.

Data set [6] concerns the target Amine oxidase [flavin-containing] A (Rattus norvegicus, UniProt P21396). The experiment in a line: Inhibition of rat brain synaptosome MAO-A. The data set is classed as subcellular.
Another data set is filed under the species Rattus norvegicus. The data set can be described thus: Anticonvulsant activity in tryptamine seizure potentiated Wistar rat. The data set is classed as functional.
The target of data set [7] is Aldo-keto reductase family 1 member B1 (Homo sapiens, UniProt P15121). The data set can be described thus: Inhibition of aldose reductase (unknown origin).
The subject of data set [8] is Mus musculus. The data set can be described thus: Antihyperglycemic activity in db/db mouse assessed as decrease in blood glucose level at 100 mg/kg. Also noted: scale not given: the % may be the effect or the level left. It is filed as functional.
Data set [9] relates to Mus musculus. The data set can be described thus: Antihyperglycemic activity in db/db mouse assessed as decrease in blood glucose level at 2 mg/kg. The data set is classed as functional. Further details: scale not given: the % may be the effect or the level left.
The test system of data set [10] is Mus musculus. The experiment in a line: Antihyperglycemic activity in db/db mouse assessed as decrease in blood glucose level at 20 mg/kg. It is filed as functional. Also noted: scale not given: the % may be the effect or the level left.
For data set [11], the system named is PC-12. The data set can be described thus: Anti amyotrophic lateral sclerosis activity in rat PC-12 cells assessed as decrease in G93A SOD1 aggregate formation relative to control. It is filed as functional. Also noted: scale not given: the % may be the effect or the level left.
Data set [12] concerns the target Cholinesterase (Equus caballus) (UniProt P81908). The data set can be described thus: Inhibition of equine serum BChE at 10^-3 M relative to control. It is filed as cell-free. The conditions noted are these: dose 1.0 10^-3M.
For data set [13], the target named is T1, Amine oxidase [flavin-containing] A. The experiment in a line: Inhibition of MAO-A (unknown origin) relative to control.
A further data set has as its target Acetylcholinesterase (Electrophorus electricus, UniProt O42275). The experiment in a line: Inhibition of electric eel AChE.
Data set [14] deals with Glycogen synthase kinase-3 beta (Homo sapiens, UniProt P49841). The experiment in a line: Inhibition of human GSK-3beta.
In another data set the target is Liver carboxylesterase 1 (Homo sapiens, UniProt P23141). The data set can be described thus: Inhibition of human CE1.
For data set [15], the species on record is Mus musculus. The data set can be described thus: Anticonvulsant activity in mouse by MES test. The data set is classed as functional.
Data set [16] is described as follows: Selectivity index, ratio of IC50 mouse […] 3T3 cells to MIC for Mycobacterium tuberculosis H37Rv. The conditions noted are these: NIH 3T3 cells, read-out: Selectivity Index. The data set is classed as toxicity.
Data set [17] deals with Mycobacterium tuberculosis. The experiment in a line: Antibacterial activity against Mycobacterium tuberculosis H37Rv. It is filed as functional.
For another data set, the system named is Escherichia coli. The experiment in a line: Antibacterial activity against Escherichia coli. The data set is classed as functional.
The subject of the next data set is Streptococcus pyogenes. The experiment in a line: Antibacterial activity against Streptococcus pyogenes. It is filed as functional.
In a further data set the test system is Geotrichum candidum. The experiment in a line: Antifungal activity against Geotrichum candidum. The data set is classed as functional.
The test system of another data set is Pseudomonas aeruginosa. The experiment in a line: Antibacterial activity against Pseudomonas aeruginosa. It is filed as functional.
Another data set has as its system Bacillus subtilis. The experiment in a line: Antibacterial activity against Bacillus subtilis. It is filed as functional.
Data set [18] deals with T2, Amine oxidase [flavin-containing] B. The data set can be described thus: Inhibition of MAO-B (unknown origin).
Data set [19] has as its system PC-12. The experiment in a line: Anti amyotrophic lateral sclerosis activity in rat PC-12 cells assessed as decrease in G93A SOD1 aggregate formation. It is filed as functional. The conditions noted are these: read-out: ED50 (the source's name).
Data set [20] has as its system PC-12. The data set can be described thus: Cytotoxicity against rat PC-12 cells. It is filed as functional. The conditions noted are these: read-out: LD50 (the source's name).
The next data set addresses Alpha-glucosidase (Saccharomyces cerevisiae S288c, UniProt P53341+P38158+P07265). The data set can be described thus: Inhibition of Saccharomyces cerevisiae alpha glucosidase. It is filed as protein assay.
For data set [21], the species on record is Mus musculus. The data set can be described thus: Antihyperglycemic activity in mouse assessed as reduction in serum glucose ratio after 7 days. The data set is classed as functional. Further details: scale not given: the % may be the effect or the level left. The conditions noted are these: time 7 day.
The species entered for data set [22] is Mus musculus. The data set can be described thus: Antihyperglycemic activity in mouse assessed as reduction in serum glucose ratio after 2 hrs. It is filed as functional. Further details: scale not given: the % may be the effect or the level left.
A short description of data set [23]: Inhibition of porcine alpha amylase. Also noted: species or system Sus scrofa.

Chain of Amine oxidase [flavin-containing] A (Rattus norvegicus, UniProt P21396) (P21396 whole entry): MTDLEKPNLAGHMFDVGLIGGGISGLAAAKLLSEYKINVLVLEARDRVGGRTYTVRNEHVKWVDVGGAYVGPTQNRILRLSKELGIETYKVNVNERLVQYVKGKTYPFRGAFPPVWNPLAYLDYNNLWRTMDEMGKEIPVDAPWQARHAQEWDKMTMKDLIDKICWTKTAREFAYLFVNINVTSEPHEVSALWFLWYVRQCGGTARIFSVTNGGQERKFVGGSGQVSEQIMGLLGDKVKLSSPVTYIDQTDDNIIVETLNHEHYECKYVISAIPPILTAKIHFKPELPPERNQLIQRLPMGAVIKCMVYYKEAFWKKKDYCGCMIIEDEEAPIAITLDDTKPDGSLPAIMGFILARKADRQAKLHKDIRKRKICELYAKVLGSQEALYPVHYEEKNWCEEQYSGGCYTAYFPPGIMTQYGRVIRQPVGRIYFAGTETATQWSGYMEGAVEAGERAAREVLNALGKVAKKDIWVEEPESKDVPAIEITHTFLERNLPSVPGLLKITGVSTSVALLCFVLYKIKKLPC
Chain of Amine oxidase [flavin-containing] B (Rattus norvegicus, UniProt P19643) (P19643 whole entry): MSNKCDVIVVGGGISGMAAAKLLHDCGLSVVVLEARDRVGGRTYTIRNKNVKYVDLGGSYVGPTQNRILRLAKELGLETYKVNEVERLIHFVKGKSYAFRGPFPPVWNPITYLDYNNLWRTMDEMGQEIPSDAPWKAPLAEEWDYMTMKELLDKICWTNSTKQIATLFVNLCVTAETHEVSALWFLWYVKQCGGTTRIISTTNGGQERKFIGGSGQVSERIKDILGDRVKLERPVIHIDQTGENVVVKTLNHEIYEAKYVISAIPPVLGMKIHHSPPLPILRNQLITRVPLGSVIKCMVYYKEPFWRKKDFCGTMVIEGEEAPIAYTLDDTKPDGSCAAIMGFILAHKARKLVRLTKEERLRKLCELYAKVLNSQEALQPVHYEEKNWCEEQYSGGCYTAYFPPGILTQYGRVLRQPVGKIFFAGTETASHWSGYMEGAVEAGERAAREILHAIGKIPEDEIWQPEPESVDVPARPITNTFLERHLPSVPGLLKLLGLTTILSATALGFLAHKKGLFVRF
Chain of Cholinesterase (Equus caballus) (P81908 whole entry): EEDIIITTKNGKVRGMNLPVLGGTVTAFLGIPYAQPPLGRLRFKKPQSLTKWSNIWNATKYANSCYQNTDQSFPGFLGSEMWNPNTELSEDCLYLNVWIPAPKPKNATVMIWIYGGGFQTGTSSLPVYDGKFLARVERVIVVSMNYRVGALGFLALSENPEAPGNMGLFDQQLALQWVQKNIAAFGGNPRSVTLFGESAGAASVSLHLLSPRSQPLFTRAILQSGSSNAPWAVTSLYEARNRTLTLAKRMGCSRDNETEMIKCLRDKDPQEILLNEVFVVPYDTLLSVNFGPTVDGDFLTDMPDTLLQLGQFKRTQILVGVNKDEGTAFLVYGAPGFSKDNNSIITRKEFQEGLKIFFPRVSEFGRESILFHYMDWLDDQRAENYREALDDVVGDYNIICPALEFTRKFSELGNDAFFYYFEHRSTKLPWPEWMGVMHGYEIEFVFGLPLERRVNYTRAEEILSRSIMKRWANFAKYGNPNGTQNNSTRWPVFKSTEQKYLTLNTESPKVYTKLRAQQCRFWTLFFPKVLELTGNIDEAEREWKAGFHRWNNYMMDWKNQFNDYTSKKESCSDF
Chain of Liver carboxylesterase 1 (P23141 whole entry): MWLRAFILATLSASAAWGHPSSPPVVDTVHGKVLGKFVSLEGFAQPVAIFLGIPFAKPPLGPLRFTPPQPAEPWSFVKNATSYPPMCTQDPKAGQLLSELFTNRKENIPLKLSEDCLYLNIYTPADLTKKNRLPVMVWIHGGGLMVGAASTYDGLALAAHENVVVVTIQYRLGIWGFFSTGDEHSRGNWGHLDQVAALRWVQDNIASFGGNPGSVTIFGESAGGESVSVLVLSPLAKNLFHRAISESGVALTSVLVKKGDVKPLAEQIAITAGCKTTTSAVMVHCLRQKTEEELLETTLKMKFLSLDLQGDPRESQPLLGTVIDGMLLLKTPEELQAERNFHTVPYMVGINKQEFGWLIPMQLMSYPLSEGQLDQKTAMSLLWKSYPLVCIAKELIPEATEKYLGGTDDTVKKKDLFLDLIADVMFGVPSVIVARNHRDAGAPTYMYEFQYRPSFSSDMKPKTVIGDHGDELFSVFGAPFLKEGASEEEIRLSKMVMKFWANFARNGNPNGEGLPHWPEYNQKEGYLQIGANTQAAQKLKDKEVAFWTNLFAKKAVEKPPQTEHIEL
Chain of Glycogen synthase kinase-3 beta (P49841 whole entry): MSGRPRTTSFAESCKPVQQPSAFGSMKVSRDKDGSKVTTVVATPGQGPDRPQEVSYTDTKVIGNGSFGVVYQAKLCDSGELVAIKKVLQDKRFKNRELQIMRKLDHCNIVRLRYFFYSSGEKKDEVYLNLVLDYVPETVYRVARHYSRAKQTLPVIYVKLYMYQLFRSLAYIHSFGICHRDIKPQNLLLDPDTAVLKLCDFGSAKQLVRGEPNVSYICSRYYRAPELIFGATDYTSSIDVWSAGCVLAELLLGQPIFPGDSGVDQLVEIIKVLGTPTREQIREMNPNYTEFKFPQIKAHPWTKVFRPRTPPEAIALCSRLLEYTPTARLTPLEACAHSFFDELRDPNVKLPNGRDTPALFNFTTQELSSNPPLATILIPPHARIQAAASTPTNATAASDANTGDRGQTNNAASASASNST
Chain of Acetylcholinesterase (O42275 whole entry): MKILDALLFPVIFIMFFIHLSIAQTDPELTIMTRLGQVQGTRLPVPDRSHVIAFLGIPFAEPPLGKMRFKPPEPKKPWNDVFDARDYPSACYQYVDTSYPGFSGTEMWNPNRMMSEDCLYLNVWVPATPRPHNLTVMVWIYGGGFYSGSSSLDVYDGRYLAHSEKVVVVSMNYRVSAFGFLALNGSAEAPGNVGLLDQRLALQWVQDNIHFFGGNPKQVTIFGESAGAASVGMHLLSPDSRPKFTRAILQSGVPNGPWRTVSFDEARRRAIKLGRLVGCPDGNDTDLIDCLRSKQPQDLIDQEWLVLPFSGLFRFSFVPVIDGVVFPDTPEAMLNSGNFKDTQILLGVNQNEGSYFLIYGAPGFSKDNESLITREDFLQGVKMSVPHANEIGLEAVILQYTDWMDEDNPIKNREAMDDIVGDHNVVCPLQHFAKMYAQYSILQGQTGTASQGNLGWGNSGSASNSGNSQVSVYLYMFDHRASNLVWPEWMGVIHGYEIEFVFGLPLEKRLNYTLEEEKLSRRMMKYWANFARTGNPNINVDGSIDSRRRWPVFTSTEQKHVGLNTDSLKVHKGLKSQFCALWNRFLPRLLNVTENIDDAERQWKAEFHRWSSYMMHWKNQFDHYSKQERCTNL

The compound `O=C1CC(NC(=O)CNc2ccc(Cl)cc2)=NN1` displayed a half-inhibitory concentration (IC50) in data set [1] below 370 nM. The selectivity ratio in data set [2] came to 633.

Regarding `Cc1c(-c2cc(C#N)c(N)o2)c(=O)n(-c2ccccc2)n1C`, the IC50 stood at 45.4 nM in data set [3] and 7.99 nM in data set [6]. Moreover, the Ratio Ki in the data set filed under Homo sapiens was 2210. Also, the results for the Ki in [4] and in [5] were 0.346 nM and 766 nM, respectively.

With `C#CCN(C)[C@H](C)Cc1ccccc1` [SELEGILINE], the ED50 in the data set filed under Rattus norvegicus was determined as 300 nM.

As to `NC(=S)N1N=C(N)/C(=C\c2cc(-c3ccc(Cl)cc3)nn2-c2ccccc2)C1=O`, in data set [7], 6300 nM corresponded to half-maximal inhibition (IC50).

With `CSc1ccc(Cc2c(C(F)(F)F)n[nH]c2O)cc1`, the Activity with Mus musculus [8] was 68%; with Mus musculus [9] it was 30%; in the data set on Mus musculus [10] it was 57%.

For `C[C@@H]1C[C@H]2O[C@@H]2/C=C\C=C\C(=O)Cc2c(Cl)c(O)cc(O)c2C(=O)O1` [RADICICOL], the Activity with PC-12 [11] is recorded as 80%.

In data set [12], `Cc1cccc(C)c1/C=N/c1c(C)n(C)n(-c2ccccc2)c1=O` gave an inhibition of 96.3%. Further, the “inhibition (INH)” value in [13] was 42.3%. Further, on Acetylcholinesterase, the midpoint of inhibition, the IC50, lay at 57 nM.

In turn, `Cn1cc(-c2[nH][nH]c(=O)c2-c2cn(C)c3ccccc23)c2ccccc21` gave a half-maximal inhibitory concentration (IC50) in data set [14] of 34 nM.

On to `Cc1ccc(C2=NN(c3ccccc3)C(=O)C23N=C([S@@+](C)[O-])N(C(=O)OC(C)(C)C)[C@]32C(=O)N(Cc3ccccc3)c3ccccc32)cc1` (some centres not stated), for which the half-maximal inhibitory concentration (IC50) against Liver carboxylesterase 1 came out at 390 nM.

Take `CC1=NN(c2ccccc2)C(=O)/C1=C\c1cn(-c2ccccc2)nc1-c1ccc(Cl)c(Cl)c1`: the Activity in the data set filed under Mus musculus [15] came to 79.76%.

As to `CC1=NN(NCC(=O)c2ccccc2)C(=O)/C1=N/Nn1c(-c2ccccc2)nc2ccccc2c1=O`, the selectivity ratio in data set [16] was found to be 26.4. Further, the MIC in data set [17] worked out at 3.11 µg/mL (≈ 6.49 µM).

The compound `O=C1CC(NC(=O)CN2CCNCC2)=NN1` returned an IC50 in data set [1] below 440 nM. In data set [2], the selectivity ratio was determined as 631.

Regarding `CC(=O)N1N=C(C)/C(=N/Nc2cc(Cl)cc(Cl)c2)C1=O`, the MIC was above 200 µg/mL in the data set on Escherichia coli; at most 12.5 µg/mL against Streptococcus pyogenes; above 200 µg/mL with Geotrichum candidum; at most 12.5 µg/mL in the data set with Pseudomonas aeruginosa; at most 12.5 µg/mL with Bacillus subtilis.

In turn, `Cc1c(/N=C/c2ccc(OCCCN(C)C)cc2)c(=O)n(-c2ccccc2)n1C` yielded an inhibition in data set [12] of 35.3%. Besides, the “inhibition (INH)” value in [13] was 38.1%. In addition, the half-inhibitory concentration (IC50) in data set [18] worked out at 49 nM.

For `Cc1c(C(=O)CC(C#N)C#N)c(=O)n(-c2ccccc2)n1C`, the values for the IC50 in data set [3] and in data set [6] were 132 nM and 2340 nM, respectively. For the same compound, the Ratio Ki in the data set listed under Homo sapiens is 8670. Besides, the Ki in data set [4] came out at 0.014 nM; in data set [5] it was 121 nM.

Turning to `Cc1cc(SCc2cc(=O)[nH][nH]2)c(Cl)cc1Cl`, the EC50 in the data set on PC-12 [19] is 400 nM. The CC50 in the data set with PC-12 [20] is above 100000 nM.

`Cc1c(C(=O)CS(=O)(=O)c2ccccc2)c(=O)n(-c2ccccc2)n1C`: the values for the 50% inhibitory concentration (IC50) (against Alpha-glucosidase; in data set [23]) were 63660 nM and 14700 nM, respectively. The figures for the Activity in the data set filed under Mus musculus [21] and in the data set listed under Mus musculus [22] were 13.34% and 32.16%, respectively.
